Results on nine molecules are retold here after patent US12427188B2, “Pyocyanine demethylases and related phenazine degrading agents compositions, methods and systems for interfering with viability of bacteria” (priority 2020, dated 2025).

In one series the test system is PA14. Put plainly: Redox cycling, reduction by and survival support of PA14. The class given is cell-based, P. aeruginosa.
For series [1] the following is noted: oxidized form; literature values (footnotes a, c, d, e); cited from earlier work.
The conditions of series [2]: copper chelating agent; cited from earlier work.
Series [3] is described as follows: Redox potential E0' vs. NHE of redox-active compounds. The class given is physicochemical. The following applies: measured in aqueous solution at pH 7 in this study (footnote b).
The test system of series [4] is Pseudomonas aeruginosa aggregate biofilms. The experiment in a line: PodA and tobramycin agar block biofilm assay (ABBA) synergy experiments. It is filed as cell-based. The following applies: for peak PI intensity: PodA10 5 μM, tobramycin 50 μg mL^−1. As to the method:
Pseudomonas aeruginosa PodA and tobramycin agar block biofilm assay (ABBA) synergy experiments. Starter Pseudomonas aeruginosa cultures were grown 24 h at 37° C. shaking in LB and the OD500 was determined by diluting cells 1:10. For inoculation into agar, cells were first diluted to an OD of 1.0, followed by a 1:10 dilution for a final OD of 0.1. Molten LB agar (1% w/v) or SCFM agar (1% w/v, made by mixing premade 2× SCFM and 2% agar) was incubated at 44° C., after which 10 μL of OD 0.1 culture was added and mixed into 1 mL of agar, for a final starting OD of 0.001. A portion of the mixture (200 μL) was pipetted into a well of an 8-well glass chamber slide for microscopy (Thermo Fisher Scientific #155409) or into a 2 mL Eppendorf tube for cell viability experiments. ABBAs were incubated at 37° C. for 24 h in a Tupperware lined with wet paper towels. Following growth, ABBAs were washed with 200 μL of HEPES (20 mM, pH 7) to rid planktonic cells growing on the surface of the agar. Treatment stocks (100 μL each) were made by diluting PodA10 and/or tobramycin into HEPES (final concentration of 20 mM, pH 7), with the no treatment control consisting of solely HEPES. Final concentrations of PodA (5 μM) and tobramycin (50 ug mL^−1) were calculated accounting for the total volume of the agar+liquid. ABBAs were treated overnight (14 h), treatment mixture was decanted, and agar blocks were washed with HEPES (400 μL).
For microscopy experiments, cells were incubated for 30 min with 125 μL of diluted propidium iodide (final concentration of 490 μM when added to ABBA, taking into account volume of the agar) and SYTO-9 (final concentration of 16 μM), after which 50 μL of a 1:50 dilution of 5-μm fluorescent beads (Spherotech; CFP-5045-2) was added to each agar block. ABBAs were imaged with a Leica TCS SPE confocal microscope as described elsewhere using 512×512-pixel format (29)[44], with the exception of imaging with a 6 μm step-size in the Z-direction.
For cell viability experiments, 300 μL of HEPES (20 mM, pH 7) was pipetted into each Eppendorf ABBA tube and samples were homogenized on speed 3 of a Bio-Gen PRO200 Homogenizer (PRO Scientific). Samples were briefly spun to rid of air bubbles (<1,000×g) and diluted in series and plated as described above in liquid synergy experiments. Experiments were completed with biological triplicates and was repeated thrice, with a representative figure shown.
ABBA microscopy image analysis. Images were analyzed in FIJI by re-slicing the data set in the XZ dimension followed by a max-intensity Z-projection. The brightness/contrast was auto-normalized in FIJI to the sample treated with only tobramycin. These LUT values were then applied to the other images in the corresponding data sets. Average pixel intensities along the Z-dimensions were found using the “Plot Profile” function in FIJI.
To determine mean pixel intensity and aggregate volume of each ABBA, channels 1 (SYTO-9) and 2 (Propidium Iodide) were combined into a single channel using FIJI. Images were analyzed in Imaris and aggregate masks were created using the “surface” module of the software. Using the surface Imaris wizard, all options under algorithm settings were unchecked. For surface channel settings, channel 3 (representing combined channels) was chosen and default settings were maintained. For threshold settings, the no treatment ABBA sample was analyzed for proper data inclusion and a value of 60 was used for all LB samples, with a threshold value of 40 for all SCFM samples. Lastly, data were excluded 0.1 μm from the XY edges, to exclude aggregates that were cut off due to imaging field. Data were not excluded from the top edge of the ABBA, as images were collected from the surface of the agar using fluorescent beads as described above. Exported statistics were used to plot aggregate volume or mean PI intensity against position of aggregates in the Z-dimension. […]

Like-named read-outs stand apart in the source and are kept apart here.

`Oc1cccc2nc3ccccc3nc12` [1-Hydroxyphenazine (1-OHPHZ), 1-Hydroxyphenazine]: in the series with PA14, the “Reduction by PA14?” value is “Yes”, the “Support survival?” value is “Yes” and the “# of Redox cycles over 7 days” value amounted to 14. In series [1], the “E^0, (vs. NHE) (mV)” value was −174 ^a mV. For the same molecule, in series [2], the “log of the equilibrium constant βmlh of binding copper” value is listed as 8.68.
Regarding `O=C1c2ccc(S(=O)(=O)O)cc2C(=O)c2ccc(S(=O)(=O)O)cc21` [2,6-AQDS], in the series on PA14, the “Reduction by PA14?” value was “Yes (very slowly)”, the “Support survival?” value is recorded as “No” and the “# of Redox cycles over 7 days” value is reported as “No cycle”. Moreover, the “E^0, (vs. NHE) (mV)” value in series [1] is listed as −184 ^d mV.
In the case of `O=C(O)Cc1cc(O)ccc1O` [Homogentisic acid (HMA), Homogentisic acid], the “E^0, (vs. NHE) (mV)” value in series [3] was “+306^b mV”. Besides, in the series on PA14, the “Support survival?” value was “No” and the “# of Redox cycles over 7 days” value was “No cycle”.
As for `CN(C)c1ccc2nc3ccc(=[N+](C)C)cc-3sc2c1` [Methylene blue (MB), Methylene blue], in series [3], the “E^0, (vs. NHE) (mV)” value was determined as 0 mV. In the series with PA14, the “Reduction by PA14?” value was “Yes”, the “Support survival?” value is on record as “No” and the “# of Redox cycles over 7 days” value came to 3. Also, the “E^0, (vs. NHE) (mV)” value in series [1] is “+11 mV”.
As to `C[n+]1ccc(-c2cc[n+](C)cc2)cc1` [Paraquat], in the series on PA14, the “Reduction by PA14?” value is “No”, the “Support survival?” value was “No” and the “# of Redox cycles over 7 days” value is “No cycle”. The “E^0, (vs. NHE) (mV)” value in series [1] is −446^e mV.
With `O=C(O)c1cccc2nc3ccccc3nc12` [Phenazine-1-carboxylate (PCA), Phenazine-1-carboxylate], in the series with PA14, the “Reduction by PA14?” value is listed as “Yes”, the “Support survival?” value is “Yes” and the “# of Redox cycles over 7 days” value is given as 22. For the same molecule, the “E^0, (vs. NHE) (mV)” value in series [1] is −114 ^a mV.
Regarding `C[n+]1c2ccccc2nc2c([O-])cccc21` [Pyocyanin (PYO), Pyocyanin], in the series with PA14, the “Reduction by PA14?” value is given as “Yes”, the “Support survival?” value is given as “Yes” and the “# of Redox cycles over 7 days” value amounted to 31. In series [1], the “E^0, (vs. NHE) (mV)” value was −40^a mV.
For the molecule `NC[C@H]1O[C@H](O[C@H]2[C@H](O)[C@@H](O[C@H]3O[C@H](CO)[C@@H](O)[C@H](N)[C@H]3O)[C@H](N)C[C@@H]2N)[C@H](N)C[C@@H]1O` [tobramycin], the “PI staining versus non-treated samples” value in series [4] (LB ABBA, hypoxia/anoxia from around 300 μm) is on record as “no significant differences”. Further, the “peak PI intensity” value in series [4] (LB) was found to be 151.0 AUs; in series [4] (SCFM), 22.6 AUs. Besides, in series [4] (SCFM ABBA, all depths), the “PI staining versus no treatment controls” value was “considerably higher than no treatment controls at all depths”.

B1: PodA: Pyocyanin demethylase of M. fortuitum, SEQ ID NO: 1; in the ABBA experiments the PodA added was PodA10 (protein, listed as Mycobacterium fortuitum)
chain: MTGKTKPAIIGGVAITALAAAGLGVWLFTDGRGGRSTTEPVTMTLDVKNDQVAKHDFGKPGMDVGDMDIFSDILSVDGKQVGYDGGACFFTNVTPDNPMTYCELTIHLDAGEIFARSLTPHTLAPFTMAITGGTGEYANSKGELTVSGVATPDEKYELKLTK
On to B1, for which the “outside ring PI staining pattern of aggregates” value in series [4] (LB, XY-plane, versus untreated aggregates) was “abolished”. Moreover, the “PI staining at depth” value in series [4] (PodA alone, >300 μm in LB (anoxic zone)) is reported as “did not significantly change”.
